{"source": "patent US9770435B2", "about": "(EUROSCREEN SA, priority 2013, dated 2017)"}
{"test_system": "TNFα secretion from LPS-stimulated PBMC", "experiment": "Cytokines release from peripheral blood mononuclear cell assay: TNFα", "format": "cell-based", "conditions": "Homo sapiens, 3 h", "procedure": "Data are presented as percentage of LPS response.\nData are presented as mean±SEM and the final concentration of each tested compound in the assay is 10 μM. Statistical analysis was performed by 2-way ANOVA followed by Dunnet's comparison to vehicle group, ****p<0.0001.\nCytokines Release from Peripheral Blood Mononuclear Cell Assay\nPeripheral blood mononuclear cells (PBMC) are purified from heparinised fresh blood sample on a Lymphoprep gradient. PBMC are plated in 96-well assay plate (2×10^5 cells/well) and stimulated with or without LPS (100 ng/ml) and increasing concentration of compounds of the invention for 3 hours at 37° C. Cell supernatants are recovered after centrifugation and human soluble TNFα, IL-6 or other cytokines, are quantified using ELISA assay (R&D system) according manufacturer's recommendation.\nAdditional results with compounds of the invention are set out in tabulated form (Table 5).", "units": {"IC50": "µM"}}
{"smiles": "Cc1ccc(C#N)cc1-c1ccc(C(=O)N2[C@@H](c3cccc(F)c3F)CC[C@H]2C(=O)O)cc1", "note": "[Compound 421, (2S,5R)-1-(5′-cyano-2′-methyl-[1,1′-biphenyl]-4-carbonyl)-5-(2,3-difluorophenyl)pyrrolidine-2-carboxylic acid]", "IC50": 2.93}
{"smiles": "COc1ccc(C#N)cc1-c1ccc(C(=O)N2[C@@H](c3ccccc3Cl)CC[C@H]2C(=O)O)cc1", "note": "[Compound 345, (2S,5R)-5-(2-chlorophenyl)-1-(5′-cyano-2′-methoxy-[1,1′-biphenyl]-4-carbonyl)pyrrolidine-2-carboxylic acid]", "IC50": 0.99}
{"smiles": "COc1ncc(-c2ccc(C(=O)N3[C@@H](c4ccccc4Cl)CC[C@H]3C(=O)O)cc2Cl)c(OC)n1", "note": "[Compound 325, (2S,5R)-1-(3-chloro-4-(2,4-dimethoxypyrimidin-5-yl)benzoyl)-5-(2-chlorophenyl)pyrrolidine-2-carboxylic acid]", "IC50": 6}
{"smiles": "COc1cc(C#N)c(-c2ccc(C(=O)N3[C@@H](c4ccccc4Cl)CC[C@H]3C(=O)O)cc2)cc1OC", "note": "[Compound 361, (2S,5R)-5-(2-chlorophenyl)-1-(2′-cyano-4′,5′-dimethoxy-[1,1′-biphenyl]-4-carbonyl)pyrrolidine-2-carboxylic acid]", "IC50": 5.19}
{"smiles": "N#Cc1ccccc1-c1ccc(C(=O)N2[C@@H](c3ccccc3Cl)CC[C@H]2C(=O)O)cc1F", "note": "[Compound 390, (2S,5R)-5-(2-chlorophenyl)-1-(2′-cyano-2-fluoro-[1,1′-biphenyl]-4-carbonyl)pyrrolidine-2-carboxylic acid]", "IC50": 5.52}
{"smiles": "COc1ncc(-c2ccc(C(=O)N3[C@@H](c4ccccc4Cl)CC[C@H]3C(=O)O)cc2)c(OC)n1", "note": "[Compound 161, (2S,5R)-5-(2-chlorophenyl)-1-(4-(2,4-dimethoxypyrimidin-5-yl)benzoyl)pyrrolidine-2-carboxylic acid]", "IC50": 11.8}
